Usually IC50 stands for the concentration that gives 50% inhibition. Broadly, the Ki is a dissociation constant, usually derived from enzyme kinetics or from competition with a known ligand.

Assay [1] concerns leukotriene pathway in human whole blood (LTB4). The assay can be described thus: Human whole blood assay (LTB4 after calcium ionophore A23187 stimulation). Type of assay: cell-based. As to conditions: Homo sapiens, human whole blood diluted 1:1 in RPMI, 15 min pre-incubation, A23187 7 μg/mL for 30 min at 37° Celsius. The gist of the method: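 Heparinised human whole blood, diluted 1:1 in RPMI, was preincubated with compound for 15 min at 37° C. before stimulation with A23187 (7 μg/mL) for 30 min. Plasma LTB4 was measured by immunoassay kit and IC50 obtained by 4-parameter fit; single replicate per plate, blood from at least one donor.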

For a further assay, the target named is human FLAP (Homo sapiens (Human), UniProt P20292). Nature of the assay: FLAP binding assay (HTRF format). The settings on record: human FLAP-containing Sf-9 membranes, 25 nM HTRF ligand, 2 h; average of runs; read-out: FLAP Binding wild type HTRF Ki. As for the experimental part:
The ability of the compounds of the present invention to treat a FLAP-mediated disease and/or disorder, or associated symptoms or complications thereof, was determined using the following procedures. Binding assay data represent the average value obtained from two different assay plates, with samples run in duplicate on each plate. Human whole blood assay data represent a single replicate on an assay plate using whole blood from at least one healthy donor.
The assay below is used to test the modulatory activity of compounds against FLAP. Human and mouse FLAP-encoding DNA was amplified by polymerase chain reaction and cloned into pFastBacl (Invitrogen) with a NH2-terminal 6-His tag for expression in Spodoptera frugiperda (Sf-9) cells. FLAP-containing membranes were prepared as was a FITC-labeled FLAP modulator (3-(3-(tert-butylthio)-1-(4-chlorobenzyl)-5-(quinolin-2-ylmethoxy)-1H-indol-2-yl)-2,2-dimethylpropanoic acid). The FLAP binding assay is performed in HTRF format (homogeneous time resolved fluorescence). […] The reaction is allowed to proceed for two hours after which the plate is read on an Envision plate reader in HTRF mode. Data are expressed as a HTRF ratio.
For human FLAP binding assays, data are analyzed with 3DX Explorer software. […] For analysis, data from multiple runs are averaged and each compound may be tested in 2 to 20 runs. Each run comprises two plates and each plate includes duplicates. Data from each plate is averaged and data are imported into 3DX. The data from multiple runs are aggregated as the average of duplicates of the calculated ratios in order to calculate Ki and IC50 values. Numbers in parentheses are the number of runs for the assay.
(TR-FRET usually uses a lanthanide donor and a delayed reading to cut background.)

SMILES strings stand for the structures. Where a name gives a salt, the structure may show the parent alone.

human FLAP, sequence (P20292 whole entry): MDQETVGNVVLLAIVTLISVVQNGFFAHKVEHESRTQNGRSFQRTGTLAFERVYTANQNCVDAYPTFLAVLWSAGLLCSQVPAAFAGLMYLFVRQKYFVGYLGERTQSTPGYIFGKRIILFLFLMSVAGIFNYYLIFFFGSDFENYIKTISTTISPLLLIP

Take `COc1cc(OC(F)(F)F)ccc1Cn1c([C@H]2CCCC[C@H]2C(=O)O)nc2ccc(OCc3ccn(C)n3)cc21` (racemic) [Example 84, racemic cis-2-{1-[2-Methoxy-4-(trifluoromethoxy)benzyl]-6-[(1-methyl-1H-pyrazol-3-yl)methoxy]-1H-benzimidazol-2-yl}cyclohexanecarboxylic acid]: the IC50 in assay [1] came to 190 nM. Moreover, the Ki on human FLAP is 5.9 nM.
For the molecule `Cn1cc(F)c(COc2ccc3nc([C@@H]4CCCC[C@@H]4C(=O)O)n(Cc4ccc(OC(F)(F)F)cc4F)c3c2)n1` (racemic) [Example 85, racemic cis-2-{6-[(4-Fluoro-1-methyl-1H-pyrazol-3-yl)methoxy]-1-[2-fluoro-4-(trifluoromethoxy)benzyl]-1H-benzimidazol-2-yl}cyclohexanecarboxylic acid], in assay [1], the IC50 was 680 nM. Also, at human FLAP, the inhibitory constant (Ki) was determined as 1.4 nM.
With `Cn1cc(Cl)c(COc2ccc3nc([C@@H]4CCCC[C@@H]4C(=O)O)n(Cc4ccc(N5CCC(F)CC5)cc4)c3c2)n1` (racemic) [Example 87, racemic cis-2-{6-[(4-Chloro-1-methyl-1H-pyrazol-3-yl)methoxy]-1-[4-(4-fluoropiperidin-1-yl)benzyl]-1H-benzimidazol-2-yl}cyclohexanecarboxylic acid], in assay [1], the IC50 was found to be 1780 nM. Further, at human FLAP, the Ki came to 15 nM.
With `Cn1ccc(COc2ccc3nc([C@@H]4CCCC[C@@H]4C(=O)O)n(Cc4ccc(N5CC(F)(F)C5)cc4)c3c2)n1` (racemic) [Example 89, racemic cis-2-{1-[4-(3,3-Difluoroazetidin-1-yl)benzyl]-6-[(1-methyl-1H-pyrazol-3-yl)methoxy]-1H-benzimidazol-2-yl}cyclohexanecarboxylic acid], in assay [1], the IC50 is 3610 nM. Further, the Ki at human FLAP stood at 32 nM.
For `Cn1ccc(COc2ccc3nc([C@@H]4CCCC[C@@H]4C(=O)O)n(Cc4ccc(OC(F)(F)F)cc4F)c3c2F)n1` (racemic) [Example 91, racemic cis-2-{7-Fluoro-1-[2-fluoro-4-(trifluoromethoxy)benzyl]-6-[(1-methyl-1H-pyrazol-3-yl)methoxy]-1H-benzimidazol-2-yl}cyclohexanecarboxylic acid] the same measures were 170 nM and 6.6 nM.
With `Cn1ccc(COc2cc(F)c3nc([C@@H]4CCCC[C@@H]4C(=O)O)n(Cc4ccc(Br)cc4)c3c2)n1` (racemic) [Example 93, racemic cis-2-{1-(4-Bromobenzyl)-4-fluoro-6-[(1-methyl-1H-pyrazol-3-yl)methoxy]-1H-benzimidazol-2-yl}cyclohexanecarboxylic acid], the concentration for half-maximal inhibition (IC50) in assay [1] was found to be 550 nM. Moreover, at human FLAP, the inhibition constant (Ki) amounted to 1.1 nM.
As to `Cn1ccc(COc2cc(F)c3nc([C@@H]4CCCC[C@@H]4C(=O)O)n(Cc4ccc(Br)cc4F)c3c2)n1` (racemic) [Example 94, racemic cis-2-{1-(4-Bromo-2-fluorobenzyl)-4-fluoro-6-[(1-methyl-1H-pyrazol-3-yl)methoxy]-1H-benzimidazol-2-yl}cyclohexanecarboxylic acid], the IC50 in assay [1] came to 340 nM. Moreover, the Ki on human FLAP is 2.4 nM.
For `Cn1ccc(COc2cc(F)c3nc([C@@H]4CCCC[C@@H]4C(=O)O)n(Cc4ccc(OC(F)(F)F)cc4)c3c2)n1` (racemic) [Example 95, racemic cis-2-{4-Fluoro-6-[(1-methyl-1H-pyrazol-3-yl)methoxy]-1-[4-(trifluoromethoxy)benzyl]-1H-benzimidazol-2-yl}cyclohexanecarboxylic acid as the HCl salt] the same measures were 1350 nM and 3.6 nM.
For `Cn1ccc(COc2cc(F)c3nc([C@H]4CCCC[C@H]4C(=O)O)n(Cc4ccc(OC(F)(F)F)cc4F)c3c2)n1` (racemic) [Example 96, racemic cis-2-{4-Fluoro-1-[2-fluoro-4-(trifluoromethoxy)benzyl]-6-[(1-methyl-1H-pyrazol-3-yl)methoxy]-1H-benzimidazol-2-yl}cyclohexanecarboxylic acid as the HCl salt] the same measures were 810 nM and 7 nM.
Turning to `Cc1ccc(Cn2c([C@@H]3CCCC[C@@H]3C(=O)O)nc3c(F)cc(OCc4ccn(C)n4)cc32)cc1` (racemic) [Example 97, racemic cis-2-{4-Fluoro-1-(4-methylbenzyl)-6-[(1-methyl-1H-pyrazol-3-yl)methoxy]-1H-benzimidazol-2-yl}cyclohexanecarboxylic acid as the HCl salt], the IC50 in assay [1] stood at 300 nM. Also, on human FLAP, the inhibition constant Ki was 7.5 nM.
For `Cc1cc(OC(F)(F)F)ccc1Cn1c([C@@H]2CCCC[C@@H]2C(=O)O)nc2ccc(OCc3ccn(C)n3)cc21` (racemic) [Example 99, racemic cis-2-{6-[(1-Methyl-1H-pyrazol-3-yl)methoxy]-1-[2-methyl-4-(trifluoromethoxy)benzyl]-1H-benzimidazol-2-yl}cyclohexanecarboxylic acid], the concentration for half-maximal inhibition (IC50) in assay [1] is 1060 nM. For the same molecule, the Ki on human FLAP worked out at 18 nM.
For `Cc1ccc(COc2ccc3nc([C@@H]4CCCC[C@@H]4C(=O)O)n(Cc4ccc(OC(F)(F)F)cc4C)c3c2)nc1` (racemic) [Example 100, racemic cis-2-{6-[(5-Methylpyridin-2-yl)methoxy]-1-[2-methyl-4-(trifluoromethoxy)benzyl]-1H-benzimidazol-2-yl}cyclohexanecarboxylic acid], in assay [1], the concentration for half-maximal inhibition (IC50) worked out at 2540 nM. At human FLAP, the inhibition constant Ki is 19 nM.
Consider `Cc1ccc(COc2ccc3nc([C@@H]4CCCC[C@@H]4C(=O)O)n(Cc4ccc(OC(F)(F)F)cc4Cl)c3c2)nc1` (racemic) [Example 101, racemic cis-2-{1-[2-Chloro-4-(trifluoromethoxy)benzyl]-6-[(5-methylpyridin-2-yl)methoxy]-1H-benzimidazol-2-yl}cyclohexanecarboxylic acid as the HCl salt], for which the IC50 in assay [1] is 900 nM. In addition, at human FLAP, the Ki turned out to be 21 nM.
`Cn1ccc(COc2ccc3nc([C@@H]4CCCC[C@@H]4C(=O)O)n(Cc4ccc(OC(F)(F)F)cc4Cl)c3c2)n1` (racemic) [Example 103, racemic cis-2-{1-[2-Chloro-4-(trifluoromethoxy)benzyl]-6-[(1-methyl-1H-pyrazol-3-yl)methoxy]-1H-benzimidazol-2-yl}cyclohexanecarboxylic acid as the HCl salt]: the IC50 in assay [1] is 1010 nM. Moreover, at human FLAP, the Ki stood at 30 nM.
As to `Cn1ccc(COc2ccc3nc([C@@H]4CCCC[C@@H]4C(=O)O)n(Cc4ccc(OC(F)(F)F)cc4Br)c3c2)n1` (racemic) [Example 104, racemic cis-2-{1-[2-Bromo-4-(trifluoromethoxy)benzyl]-6-[(1-methyl-1H-pyrazol-3-yl)methoxy]-1H-benzimidazol-2-yl}cyclohexanecarboxylic acid as the HCl salt], the IC50 in assay [1] was 690 nM. For the same molecule, the Ki at human FLAP was 30 nM.
Taken in the same sequence, the figures for `Cc1cc(Cn2c([C@@H]3CCCC[C@@H]3C(=O)O)nc3ccc(OCc4ccn(C)n4)cc32)ccc1OC(F)(F)F` (racemic) [Example 106, racemic cis-2-{6-[(1-Methyl-1H-pyrazol-3-yl)methoxy]-1-[3-methyl-4-(trifluoromethoxy)benzyl]-1H-benzimidazol-2-yl}cyclohexanecarboxylic acid as the HCl salt] were 1160 nM and 5.4 nM.
For `Cc1ccc(Cn2c([C@@H]3[C@H](C(=O)O)C3(C)C)nc3ccc(OCc4ccc(C)cn4)cc32)cc1` (racemic) [Example 121, racemic cis-2,2-Dimethyl-3-{1-(4-methylbenzyl)-6-[(5-methylpyridin-2-yl)methoxy]-1H-benzimidazol-2-yl}cyclopropanecarboxylic acid], the half-inhibitory concentration (IC50) in assay [1] was determined as 2110 nM. The Ki at human FLAP stood at 150 nM.
For the molecule `Cn1ccc(COc2ccc3nc([C@@H]4[C@H](C(=O)O)C4(C)C)n(Cc4ccc(OC(F)(F)F)cc4)c3c2)n1` (racemic) [Example 122, racemic cis-2,2-Dimethyl-3-{6-[(1-methyl-1H-pyrazol-3-yl)methoxy]-1-[4-(trifluoromethoxy)benzyl]-1H-benzimidazol-2-yl}cyclopropanecarboxylic acid], the IC50 in assay [1] worked out at 3400 nM. In addition, on human FLAP, the Ki is about 830 nM.
With `Cc1cnc(COc2ccc3nc([C@@H]4[C@H](C(=O)O)C4(C)C)n(Cc4ccc(Br)cc4)c3c2)c(F)c1` (racemic) [Example 132, racemic cis-3-{1-(4-Bromobenzyl)-6-[(3-fluoro-5-methylpyridin-2-yl)methoxy]-1H-benzimidazol-2-yl}-2,2-dimethylcyclopropanecarboxylic acid], the IC50 in assay [1] worked out at 270 nM. Moreover, the inhibition constant (Ki) on human FLAP turned out to be 2.9 nM.
As for `Cn1ccc(COc2ccc3nc([C@@H]4[C@H](C(=O)O)C4(C)C)n(Cc4ccc(Br)cc4)c3c2)n1` (racemic) [Example 134, racemic cis-3-{1-(4-Bromobenzyl)-6-[(1-methyl-1H-pyrazol-3-yl)methoxy]-1H-benzimidazol-2-yl}-2,2-dimethylcyclopropanecarboxylic acid], the IC50 in assay [1] worked out at 860 nM. Moreover, at human FLAP, the inhibition constant (Ki) was about 500 nM.

These data come from US8952177B2 (Janssen Pharmaceutica NV, priority 2013, dated 2015).
